For 5 compounds, Normal melting temperature results are on record in the NIST ThermoML archive (doi:10.1016/j.fluid.2007.01.029).

For the series the following is noted: Crystal.

Numbers after ± are expanded uncertainties.

Regarding `c1ccccc1` [benzene], the Normal melting temperature was determined as 5.44 ± 0.6 °C. To `C1CC[C@H]2CCCC[C@H]2C1` [cis-decahydronaphthalene] belongs -45.08 ± 0.6 °C; to `C1CCCCC1` [cyclohexane], 6.48 ± 0.6 °C; to `c1ccc2ccccc2c1` [naphthalene], 79.99 ± 0.6 °C. `C1CC[C@H]2CCCC[C@@H]2C1` [trans-decahydronaphthalene]: the Normal melting temperature is -30.44 ± 0.6 °C.
